In patent US4803227A, “Aminoalkyl ethers of phenols as anticancer agents for the breast and colon” (The University of Manitoba, priority 1984, dated 1989):
Structures can show the parent of a compound that is named as a salt. Where two headings read alike, the source gives them in different places. Values belong to the molecule of their own block, whether it stands above or below them.

Assays:
[1] = target: AEBS (anti-estrogen binding site), MCF-7 microsomes; assay: competition with [3H]-tamoxifen for AEBS, MCF-7 microsomes; parameters: species or system human; details: for IC50: read-out: RSBA (M) for AEBS, MCF-7 microsomes
From the text: (§1) *Relative specific binding affinity (RSBA) is the concentration of cold
(§2) competitor required to displace 50% of the specifically bound label and
(§3) expresses the affinity of the test compound for the receptor relative to
(§4) that of the labelled specific ligand, in this instance 1.5 ×

MCF-7 cells = details: 7 days; for reversal of growth inhibition by estradiol: 1×10^-8 M estradiol; for inhibition of growth of MCF-7 cells: tamoxifen 5×10^-7 M, N,N-DPPE 1x-8x tamoxifen concentration
[2] = test system: progesterone receptor (PgR) in MCF-7 cells; assay: induction of progesterone receptor (PgR) synthesis in MCF-7 cells; assay type: cell-based, human; details: 5 days of pre-incubation, 1×10^-8 M
colon carcinoma (3C872) = assay: colon tumor test in female rats implanted with colon carcinoma (3C872); assay type: in vivo; details: for Tumor wt % of Controls / Tumor Evaluation (wt. mg): intramuscular, twice daily for 7 days; for Tumor Evaluation (wt. mg): control 2261
Description: The rats had been subcutaneously implanted with colon carcinoma (3C872) and were cancerous. […] The wt. of the tumor was measured after the 7-day treatment and reported as a % (average) of the control tumor wt. (average) using 40 control rats.

[3] = test system: MCF-7 human breast cancer cells; assay: cells; details: for IC90: Homo sapiens, MCF7, 168 h, read-out: D10 (concentration required to effect a 90% reduction in the number of MCF7 cells)
Description: Concentrations are shown on the x-axis. […] A longer exposure time (10 days) was employed because this cell line is slower growing than the MCF-7 cell line.
In the case of MCF-7 cells, approximately 2×10^4 MCF-7 cells were seeded into duplicate 25 cm tissue culture flasks containing Dulbecco's modified Eagle's medium supplemented with insulin (10 μg/ml), glucose ([…])and 5% dextran coated charcoal-stripped fetal calf serum to which was added increasing concentrations of the compound to be tested. Cells were allowed to grow for 7 days with one change of medium containing the test compound on day 4. […] Total cell number at each concentration was determined by Coulter counter. […] D (that concentration required to elicit a 90% reduction in cell number relative to the control after 7 days of treatment) was determined for each compound.

[4] = target: AEBS (anti-estrogen binding site), rat liver microsomes; assay: competition with [3H]-tamoxifen for AEBS, rat liver microsomes; details: concentration of cold competitor required to displace 50% of specifically bound label, 1.5 × 10^-9 M [3H]-tamoxifen; read-out: RSBA (M) for AEBS, Rat liver microsomes
From the text: as §1, §2, §3, §4

estrogen receptor (ER) [5] = assay: competition with [3H] 17 β-estradiol for ER; assay type: binding
estrogen receptor (ER) [6] = details: literature; cited from earlier work
[7] = literature; cited from earlier work
[8] = concentration of cold competitor required to displace 50% of specifically bound label, 1.5 × 10^-9 M [3H]-tamoxifen
[9] = microsome preparation not given

IC50 [1, 8]: 7e-07 M
binding to AEBS [1, 9]: bind significantly to AEBS
IC90 [3]: 16 µM
IC50 [4]: 4e-08 M
Structure (SMILES): CCN(CC)CCOc1ccc(Cc2ccccc2)cc1 [N,N-DPPE, N,N-diethyl-2-[(4-phenylmethyl)phenoxy]ethanamine hydrochloride]
reversal of growth inhibition by estradiol (MCF-7 cells): no significant reversal of its effect by estradiol
inhibition of growth of MCF-7 cells (MCF-7 cells; absence of estradiol): significant growth inhibition, but in all cases, less than that for tamoxifen
inhibition of growth of MCF-7 cells (MCF-7 cells; presence of estradiol): significantly (P<0.001) more inhibition than tamoxifen
induction of PgR synthesis above control levels [2]: failure to induce significant syn thesis of progesterone receptor (PgR) above control levels
Tumor wt % of Controls (colon carcinoma (3C872); 8.00 mg/kg per injection): 80%
Tumor Evaluation (wt. mg) (colon carcinoma (3C872); 8.00 mg/kg per injection): 1817 mg
Tumor wt % of Controls (colon carcinoma (3C872); 16.00 mg/kg per injection): 99%
Tumor Evaluation (wt. mg) (colon carcinoma (3C872); 16.00 mg/kg per injection): 2259 mg
Tumor wt % of Controls (colon carcinoma (3C872); 32.00 mg/kg per injection): 68%
Tumor Evaluation (wt. mg) (colon carcinoma (3C872); 32.00 mg/kg per injection): 1557 mg
reduction in tumor growth (colon carcinoma (3C872); 32 mg/kg, 7 days): 30%
optimal dosage (colon carcinoma (3C872); 7-day test): 30 to 40 mg/kg
results at higher doses (colon carcinoma (3C872); above 60 mg/kg): results became poorer

IC50 [1, 8]: 6.6e-07 M
binding to AEBS [1, 9]: bind significantly to AEBS
binding to ER (estrogen receptor (ER) [5]): only weakly to ER
IC90 [3]: 16 µM
Structure (SMILES): c1ccc(Cc2ccc(OCCN3CCOCC3)cc2)cc1 [MPPE, N-morpholino-2-[(4-phenylmethyl)phenoxy]ethanamine hydrochloride]

Structure (SMILES): CC/C(=C(\c1ccccc1)c1ccc(OCCN(C)C)cc1)c1ccccc1 [Tamoxifen, 1-(p-β-dimethylaminoethoxyphenyl)-trans-1,2-diphenylbut-1-ene, reference compound]
competition for the estrogen receptor (estrogen receptor (ER) [6]): compete for the estrogen receptor (ER)
reversal of growth inhibition by estradiol (MCF-7 cells): largely but not completely reversed by the addition of 1×10^-8 M estradiol
inhibition of growth of MCF-7 cells (MCF-7 cells; absence of estradiol): Significant inhibition
IC90 [3]: 4.8 µM

IC50 [1, 8]: 8e-05 M
IC90 [3]: 1100 µM
IC50 [4]: 4e-05 M
Structure (SMILES): CCN(CC)CCOc1ccccc1 [N,N-DPEA, N,N-diethyl-2-phenoxyethylamine hydrochloride, reference compound]

IC90 [3]: 48 µM
IC50 [4]: 2e-06 M
Structure (SMILES): CN(C)CCOc1ccccc1Cc1ccccc1 [Phenyltoloxamine, N,N-dimethyl-2[(2-phenylmethyl)phenoxy]ethanamine, reference compound]
anti-histamine effects [7]: pronounced anti-histamine effects
concentrations at which compound becomes significantly cytotoxic for MCF-7 cells ([3]; human, 10080 min): > 100 µM

RSBA (M) for AEBS, MCF-7 microsomes [1, 8]: No affinity
Structure (SMILES): C(=C(c1ccccc1)c1ccccc1)c1ccccc1 [Triphenylethylene, triphenylethylene, reference compound]
competition with [3H]-tamoxifen for AEBS ([1]; at all concentrations tested, microsome preparation not given): fails to compete with [^3 H]-tamoxifen for AEBS
competition with [3H] 17 β-estradiol for ER (estrogen receptor (ER) [5]; at higher concentrations): competes with [^3 H] 17 β-estradiol for ER
cytotoxic effect on MCF-7 cells [3]: no cytotoxic effect on MCF-7 cells after 7 days of exposure
D10 (concentration required to effect a 90% reduction in the number of MCF7 cells) ([3]; 7 days of exposure): No effect
